In patent publication US10131652B2, “Pyrimidinyloxy benzene derivatives as herbicides” (E. I. DU PONT DE NEMOURS AND COMPANY, priority 2014, dated 2018):
Where two headings read alike, the source gives them in different places.

Tests used:
Assay in all cases: Test D pre-/postemergence plant response
Assay type in all cases: in vivo
[1] = test system: ragweed (common ragweed, Ambrosia elatior); conditions: Ambrosia artemisiifolia; for pest or weed control at 16 g/ha: 16 g ai/ha; for pest or weed control at 31 g/ha: 31 g ai/ha; for pest or weed control at 62 g/ha: 62 g ai/ha; for pest or weed control at 125 g/ha: 125 g ai/ha
Source text: (§1) Seeds of plant species selected from blackgrass (Alopecurus myosuroides), Italian ryegrass (Lolium multiflorum), winter wheat (Triticum aestivum), galium (catchweed bedstraw, Galium aparine), corn (Zea mays), large (Lg) crabgrass (Digitaria sanguinalis), giant foxtail (Setaria faberii), johnsongrass (Sorghum halepense), lambsquarters (Chenopodium album), morningglory (Ipomoea coccinea), yellow nutsedge (Cyperus esculentus), pigweed (Amaranthus retroflexus), ragweed (common ragweed, Ambrosia elatior), soybean (Glycine max), bamyardgrass (Echinochloa crus-galli), oilseed rape (Brassica napus), waterhemp (common waterhemp, Amaranthus rudis), and velvetleaf (Abutilon theophrasti) were planted into a blend of loam soil and sand and treated preemergence with test chemicals formulated in a non-phytotoxic solvent mixture which included a surfactant. At the same time, plants selected from these crop and weed species and also kochia (Kochia scoparia), wild oat (Avena fatua), and chickweed (common chickweed, Stellaria media) were planted in pots containing Redi-Earth® planting medium (Scotts Company, 14111 Scottslawn Road, Marysville, Ohio 43041) comprising spaghnum peat moss, vermiculite, wetting agent and starter nutrients and treated with postemergence applications of test chemicals formulated in the same manner. Plants ranged in height from 2 to 18 cm (1- to 4-leaf stage) for postemergence treatments. Treated plants and controls were maintained in a greenhouse for 13 to 15 days, after which time all species were compared to controls and visually evaluated. Plant response ratings, summarized in Table D, are based on a scale of 0 to 100 where 0 is no effect and 100 is complete control. A dash (-) response means no test result.

[2] = test system: lambsquarters (Chenopodium album); conditions: Chenopodium album; for pest or weed control at 16 g/ha: 16 g ai/ha; for pest or weed control at 31 g/ha: 31 g ai/ha; for pest or weed control at 62 g/ha: 62 g ai/ha; for pest or weed control at 125 g/ha: 125 g ai/ha
Source text: as §1

[3] = test system: johnsongrass (Sorghum halepense); conditions: Sorghum halepense; for pest or weed control at 16 g/ha: 16 g ai/ha; for pest or weed control at 31 g/ha: 31 g ai/ha; for pest or weed control at 62 g/ha: 62 g ai/ha; for pest or weed control at 125 g/ha: 125 g ai/ha
Source text: as §1

[4] = test system: oilseed rape (Brassica napus); conditions: Brassica napus; for plant injury at 16 g/ha: 16 g ai/ha; for plant injury at 31 g/ha: 31 g ai/ha; for plant injury at 62 g/ha: 62 g ai/ha; for plant injury at 125 g/ha: 125 g ai/ha
Source text: as §1

[5] = test system: winter wheat (Triticum aestivum); conditions: Triticum aestivum, post-emergence, Postemergence
Source text: as §1

[6] = post-emergence, Postemergence, scale 0 to 100 (0 no effect, 100 complete control), read-out: Ragweed plant response rating
[7] = post-emergence, Postemergence, scale 0 to 100, 0 no effect, 100 complete control, read-out: Plant response rating, Ragweed
[8] = pre-emergence, Preemergence, scale 0 to 100 (0 no effect, 100 complete control), read-out: Plant response rating, Ragweed
[9] = post-emergence, Postemergence, scale 0 to 100 (0 no effect, 100 complete control), read-out: Lambsquarters plant response rating
[10] = post-emergence, Postemergence, scale 0 to 100, 0 no effect, 100 complete control, read-out: Plant response rating, Lambsquarters
[11] = pre-emergence, Preemergence, scale 0 to 100 (0 no effect, 100 complete control), read-out: Plant response rating, Lambsquarters
[12] = post-emergence, Postemergence, scale 0 to 100 (0 no effect, 100 complete control), read-out: Johnsongrass plant response rating
[13] = post-emergence, Postemergence, scale 0 to 100, 0 no effect, 100 complete control, read-out: Plant response rating, Johnsongrass
[14] = pre-emergence, Preemergence, scale 0 to 100 (0 no effect, 100 complete control), read-out: Plant response rating, Johnsongrass
[15] = post-emergence, Postemergence, scale 0 to 100 (0 no effect, 100 complete control), read-out: Oilseed Rape plant response rating
[16] = post-emergence, Postemergence, scale 0 to 100, 0 no effect, 100 complete control, read-out: Plant response rating, Oilseed Rape
[17] = pre-emergence, Preemergence, scale 0 to 100 (0 no effect, 100 complete control), read-out: Plant response rating, Oilseed Rape

Q: How did the pest or weed control at 16 g/ha [1, 6] turn out when Fc1cccc(Oc2ncc(Cl)cn2)c1-c1cc(C(F)F)on1 [Compound 55, 5-chloro-2-[2-[5-(difluoromethyl)-3-isoxazolyl]-3-fluorophenoxy]pyrimidine] was run?
A: 25%

Q: And the pest or weed control at 31 g/ha [1, 6]?
A: 40%

Q: And the pest or weed control at 62 g/ha [1, 7]?
A: 65%

Q: What about the pest or weed control at 125 g/ha [1, 7] of the same compound?
A: 90%

Q: What about the pest or weed control at 125 g/ha ([1]; pre-emergence, Preemergence, read-out: Plant response rating (scale 0 to 100), Ragweed) of the same compound?
A: 95%

Q: What about the pest or weed control at 16 g/ha [1, 8] of the same compound?
A: 70%

Q: What about the pest or weed control at 31 g/ha [1, 8] of the same compound?
A: 75%

Q: And the pest or weed control at 62 g/ha [1, 8]?
A: 90%

Q: What about the pest or weed control at 16 g/ha [2, 9] of the same compound?
A: 75%

Q: What about the pest or weed control at 31 g/ha [2, 9] of the same compound?
A: 85%

Q: And the pest or weed control at 62 g/ha [2, 10]?
A: 98%

Q: What about the pest or weed control at 125 g/ha [2, 10] of the same compound?
A: 98%

Q: And the pest or weed control at 125 g/ha ([2]; pre-emergence, Preemergence, read-out: Plant response rating (scale 0 to 100), Lambsquarters)?
A: 98%

Q: What about the pest or weed control at 16 g/ha [2, 11] of the same compound?
A: 100%

Q: What about the pest or weed control at 31 g/ha [2, 11] of the same compound?
A: 100%

Q: And the pest or weed control at 62 g/ha [2, 11]?
A: 100%

Q: What about the pest or weed control at 16 g/ha [3, 12] of the same compound?
A: 5%

Q: What about the pest or weed control at 31 g/ha [3, 12] of the same compound?
A: 5%

Q: And the pest or weed control at 62 g/ha [3, 13]?
A: 10%

Q: What about the pest or weed control at 125 g/ha [3, 13] of the same compound?
A: 15%

Q: What about the pest or weed control at 125 g/ha ([3]; pre-emergence, Preemergence, read-out: Plant response rating (scale 0 to 100), Johnsongrass) of the same compound?
A: 100%

Q: And the pest or weed control at 16 g/ha [3, 14]?
A: 30%

Q: What about the pest or weed control at 31 g/ha [3, 14] of the same compound?
A: 75%

Q: What about the pest or weed control at 62 g/ha [3, 14] of the same compound?
A: 85%

Q: And the plant injury at 16 g/ha [4, 15]?
A: 95%

Q: And the plant injury at 31 g/ha [4, 15]?
A: 95%

Q: And the plant injury at 62 g/ha [4, 16]?
A: 100%

Q: And the plant injury at 125 g/ha [4, 16]?
A: 100%

Q: What about the plant injury at 125 g/ha ([4]; pre-emergence, Preemergence, read-out: Plant response rating (scale 0 to 100), Oilseed Rape) of the same compound?
A: 100%

Q: And the plant injury at 16 g/ha [4, 17]?
A: 100%

Q: What about the plant injury at 31 g/ha [4, 17] of the same compound?
A: 100%

Q: And the plant injury at 62 g/ha [4, 17]?
A: 100%

Q: And the plant injury at 16 g/ha ([5]; 16 g ai/ha, scale 0 to 100 (0 no effect, 100 complete control), read-out: Wheat plant response rating)?
A: 5%

Q: What about the plant injury at 31 g/ha ([5]; 31 g ai/ha, scale 0 to 100 (0 no effect, 100 complete control), read-out: Wheat plant response rating) of the same compound?
A: 25%

Q: What about the plant injury at 62 g/ha ([5]; 62 g ai/ha, scale 0 to 100, 0 no effect, 100 complete control, read-out: Plant response rating, Wheat) of the same compound?
A: 30%

Q: And the plant injury at 125 g/ha ([5]; 125 g ai/ha, scale 0 to 100, 0 no effect, 100 complete control, read-out: Plant response rating, Wheat)?
A: 35%
